This note sets out measurements from patent US9663530B2, “5-oxa-2-azabicyclo[2.2.2]OCTAN-4-yl and 5-oxa-2-azabicyclo[2.2.1]heptan-4-yl derivatives” (Hoffmann-La Roche Inc., priority 2014, dated 2017).

The target in one assay is mouse TAAR1 (Mus musculus (Mouse), UniProt Q923Y8). Nature of the assay: Radioligand binding assay on mouse TAAR1. The note with it: mouse TAAR1 (first value of the cell); membranes of HEK-293 cells stably expressing mouse TAAR1; read-out: Ki (μM) mouse/rat.
For another assay, the target named is rat TAAR1 (Rattus norvegicus (Rat), UniProt Q923Y9). The assay can be described thus: Radioligand binding assay on rat TAAR1. As to conditions: rat TAAR1 (second value of the cell); membranes of HEK-293 cells stably expressing rat TAAR1; read-out: Ki (μM) mouse/rat. The procedure, abridged:
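Membranes from HEK293 cells stably expressing rat TAAR1 were incubated 1 h at 4 °C, in duplicate, with the tritiated oxazol-2-ylamine radioligand added at 3.3×Kd (Kd set per membrane batch by saturation). Buffer was 20 mM HEPES-NaOH pH 7.4, 10 mM MgCl2, 2 mM CaCl2; filtration and scintillation counting followed. […]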

mouse TAAR1, sequence (Q923Y8 whole entry): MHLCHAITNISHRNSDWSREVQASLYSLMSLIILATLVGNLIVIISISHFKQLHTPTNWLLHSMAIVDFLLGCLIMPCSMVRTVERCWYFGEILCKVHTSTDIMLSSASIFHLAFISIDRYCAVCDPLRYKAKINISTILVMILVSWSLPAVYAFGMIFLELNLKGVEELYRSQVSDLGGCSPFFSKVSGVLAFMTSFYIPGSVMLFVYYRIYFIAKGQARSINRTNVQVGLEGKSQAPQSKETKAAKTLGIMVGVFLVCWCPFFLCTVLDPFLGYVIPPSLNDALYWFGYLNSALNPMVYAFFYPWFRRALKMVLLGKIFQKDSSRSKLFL
rat TAAR1, sequence (Q923Y9 whole entry): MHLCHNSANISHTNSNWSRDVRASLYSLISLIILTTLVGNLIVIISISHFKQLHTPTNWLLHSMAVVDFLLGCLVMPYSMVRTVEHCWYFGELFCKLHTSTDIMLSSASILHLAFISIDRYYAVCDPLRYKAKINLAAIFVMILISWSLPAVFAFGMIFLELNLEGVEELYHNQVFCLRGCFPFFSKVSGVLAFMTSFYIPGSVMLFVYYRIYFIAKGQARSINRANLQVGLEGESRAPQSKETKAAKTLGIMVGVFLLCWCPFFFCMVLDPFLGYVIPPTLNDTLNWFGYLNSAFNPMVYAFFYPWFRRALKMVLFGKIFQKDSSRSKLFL

As for `FC(F)(F)c1nccc(Nc2ccc([C@@]34CN[C@@H](CO3)C4)cc2)n1` [Example 56, N-[4-[(1R,4S)-5-Oxa-2-azabicyclo[2.2.1]heptan-4-yl]phenyl]-2-(trifluoromethyl)pyrimidin-4-amine], the figures for the Ki on mouse TAAR1 and at rat TAAR1 were 0.0393 µM and 2.41 µM, respectively.
As for `FC(F)(F)c1ccc(Nc2ccc(C[C@@]34CN[C@@H](CO3)C4)cc2)nc1` [Example 63, N-[4-[[(1R,4R)-5-Oxa-2-azabicyclo[2.2.1]heptan-4-yl]methyl]phenyl]-5-(trifluoromethyl)pyridin-2-amine], the figures for the Ki at mouse TAAR1 and at rat TAAR1 were 0.0107 µM and 0.141 µM, respectively.
Regarding `O=C(Nc1ccc([C@]23CN[C@H](CO2)C3)cc1)c1ccnc(C(F)(F)F)c1` [Example 60, N-[4-[(1S,4R)-5-Oxa-2-azabicyclo[2.2.1]heptan-4-yl]phenyl]-2-(trifluoromethyl)pyridine-4-carboxamide], the Ki on mouse TAAR1 is 0.0512 µM; on rat TAAR1, 0.273 µM.
With `O=C(Nc1ccc(C23CCC(CO2)NC3)cc1)c1ccnc(C(F)(F)F)c1` (racemic) [Example 37, (RS)—N-[4-(5-Oxa-2-azabicyclo[2.2.2]octan-4-yl)phenyl]-2-(trifluoromethyl)pyridine-4-carboxamide], the Ki at mouse TAAR1 turned out to be 0.0377 µM; on rat TAAR1, 1.44 µM.
The matching figures for `O=C(Nc1ccc(C[C@@]23CN[C@@H](CO2)C3)cc1)Nc1ccccc1Cl` [Example 43, 1-(2-Chlorophenyl)-3-[4-[[(1R,4R)-5-oxa-2-azabicyclo[2.2.1]heptan-4-yl]methyl]phenyl]urea]: 0.0124 µM and 0.202 µM.
As to `FC(F)(F)c1ccc(Nc2ccc([C@]34CN[C@H](CO3)C4)cc2)nc1` [Example 61, N-[4-[(1 S,4R)-5-Oxa-2-azabicyclo[2.2.1]heptan-4-yl]phenyl]-5-(trifluoromethyl)pyridin-2-amine], the results for the Ki on mouse TAAR1 and at rat TAAR1 were 0.0146 µM and 0.0293 µM, respectively.
Regarding `O=C(Nc1ccc(C[C@@]23CN[C@@H](CO2)C3)cc1)c1ccc(OCC2CC2)cc1` [Example 45, 4-(Cyclopropylmethoxy)-N-[4-[[(1R,4R)-5-oxa-2-azabicyclo[2.2.1]heptan-4-yl]methyl]phenyl]benzamide], the Ki on mouse TAAR1 stood at 0.0061 µM; at rat TAAR1, 0.0212 µM.
With `O=C(Nc1ccc(C[C@@]23CN[C@@H](CO2)C3)cc1)Nc1cccc(Cl)c1` [Example 24, 1-(3-Chlorophenyl)-3-[4-[[(1R,4R)-5-oxa-2-azabicyclo[2.2.1]heptan-4-yl]methyl]phenyl]urea], the Ki at mouse TAAR1 stood at 0.0086 µM; at rat TAAR1, 0.0614 µM.
For `CCOc1ccc(C(=O)Nc2ccc(C[C@@]34CN[C@@H](CO3)C4)cc2)cn1` [Example 46, 6-Ethoxy-N-[4-[[(1R,4R)-5-oxa-2-azabicyclo[2.2.1]heptan-4-yl]methyl]phenyl]pyridine-3-carboxamide], in that order: 0.0142 µM and 0.448 µM.
Take `CCCc1n[nH]c(C(=O)Nc2ccc(C34CCC(CO3)NC4)cc2)c1Cl` (racemic) [Example 34, (RS)-4-Chloro-N-[4-(5-oxa-2-azabicyclo[2.2.2]octan-4-yl)phenyl]-3-propyl-1H-pyrazole-5-carboxamide]: the values for the Ki on mouse TAAR1 and at rat TAAR1 were 0.0135 µM and 0.0973 µM, respectively.
Regarding `CC(C)c1cc(C(=O)Nc2ccc(C[C@]34CN[C@H](CO3)C4)cc2)[nH]n1` [Example 38, 3-Isopropyl-N-[4-[[(1S,4S)-5-oxa-2-azabicyclo[2.2.1]heptan-4-yl]methyl]phenyl]-1H-pyrazole-5-carboxamide], the results for the Ki at mouse TAAR1 and on rat TAAR1 were 10.1 µM and 0.441 µM, respectively.
With `O=C(Nc1ccc(C[C@]23CN[C@H](CO2)C3)cc1)c1cnc(C2CC2)nc1` [Example 28, 2-Cyclopropyl-N-[4-[[(1S,4S)-5-oxa-2-azabicyclo[2.2.1]heptan-4-yl]methyl]phenyl]pyrimidine-5-carboxamide], the Ki at mouse TAAR1 was 0.36 µM; on rat TAAR1 it was 1.58 µM.
